# In the supplement of paper PMC10307832:
# Tests used:
# Assay in all cases: relative viability (nuclei count vs DMSO), 5 days (fraction); higher = more cells survive
# A-427 = system: A-427
# Procedure, shortened: (§1)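 Medians of duplicate plates are given as relative viability. That measure is the nuclei count in treated wells divided by the count in vehicle wells. Counts were taken on 4× images of lung cancer cell lines in 1536-well plates, 5 days after pin-tool dosing the day after seeding with one drug alone or a fixed anchor-drug dose plus five library-drug doses (not always all listed) in √10 steps.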
# ABC-1 = system: ABC-1
# Procedure, shortened: as §1
# EMC-BAC-2 = system: EMC-BAC-2
# Procedure, shortened: as §1
# HARA = system: HARA
# Procedure, shortened: as §1
# LK-2 = system: LK-2
# Procedure, shortened: as §1
# LXF-289 = system: LXF-289
# Procedure, shortened: as §1
# NCI-H1792 = system: NCI-H1792
# Procedure, shortened: as §1
# NCI-H1944 = system: NCI-H1944
# Procedure, shortened: as §1
# NCI-H1993 = system: NCI-H1993
# Procedure, shortened: as §1
# NCI-H2009 = system: NCI-H2009
# Procedure, shortened: as §1
# NCI-H2170 = system: NCI-H2170
# Procedure, shortened: as §1
# NCI-H3122 = system: NCI-H3122
# Procedure, shortened: as §1
# NCI-H322M = system: NCI-H322M
# Procedure, shortened: as §1
# NCI-H522 = system: NCI-H522
# Procedure, shortened: as §1
# NCI-H596 = system: NCI-H596
# Procedure, shortened: as §1
# NCI-H727 = system: NCI-H727
# Procedure, shortened: as §1
# PC-3 [JPC-3] = system: PC-3 [JPC-3]
# Procedure, shortened: as §1
# SK-MES-1 = system: SK-MES-1
# Procedure, shortened: as §1
# SW 1573 = system: SW 1573
# Procedure, shortened: as §1
# SW 900 = system: SW 900
# Procedure, shortened: as §1
smiles,measurement,setting,value
CC(=O)O[C@@]12CO[C@@H]1C[C@H](O)[C@@]1(C)C(=O)[C@H](O)C3=C(C)[C@@H](OC(=O)[C@H](O)[C@@H](NC(=O)OC(C)(C)C)c4ccccc4)C[C@@](O)([C@@H](OC(=O)c4ccccc4)[C@H]21)C3(C)C [Docetaxel] + Nc1ncn([C@H]2C[C@H](O)[C@@H](CO)O2)c(=O)n1 [Decitabine] (partner 2 µM),relative viability,A-427; first compound 0.0002 µM,0.568
same,relative viability,A-427; first compound 0.000632 µM,0.569
same,relative viability,A-427; first compound 0.002 µM,0.443
same,relative viability,A-427; first compound 0.006325 µM,0.3
same,relative viability,A-427; first compound 0.02 µM,0.222
same,relative viability,ABC-1; first compound 0.0002 µM,1.04
same,relative viability,ABC-1; first compound 0.000632 µM,0.923
same,relative viability,ABC-1; first compound 0.002 µM,1.01
same,relative viability,ABC-1; first compound 0.006325 µM,0.618
same,relative viability,ABC-1; first compound 0.02 µM,0.416
same,relative viability,EMC-BAC-2; first compound 0.0002 µM,0.947
same,relative viability,EMC-BAC-2; first compound 0.000632 µM,0.811
same,relative viability,EMC-BAC-2; first compound 0.002 µM,0.461
same,relative viability,EMC-BAC-2; first compound 0.006325 µM,0.46
same,relative viability,EMC-BAC-2; first compound 0.02 µM,0.299
same,relative viability,HARA; first compound 0.0002 µM,0.459
same,relative viability,HARA; first compound 0.000632 µM,0.314
same,relative viability,HARA; first compound 0.002 µM,0.249
same,relative viability,HARA; first compound 0.006325 µM,0.187
same,relative viability,HARA; first compound 0.02 µM,0.111
same,relative viability,LK-2; first compound 0.0002 µM,0.348
same,relative viability,LK-2; first compound 0.000632 µM,0.224
same,relative viability,LK-2; first compound 0.002 µM,0.115
same,relative viability,LK-2; first compound 0.006325 µM,0.126
same,relative viability,LK-2; first compound 0.02 µM,0.13
same,relative viability,LXF-289; first compound 0.0002 µM,0.383
same,relative viability,LXF-289; first compound 0.000632 µM,0.382
same,relative viability,LXF-289; first compound 0.002 µM,0.25
same,relative viability,LXF-289; first compound 0.006325 µM,0.14
same,relative viability,LXF-289; first compound 0.02 µM,0.118
same,relative viability,NCI-H1792; first compound 0.0002 µM,0.445
same,relative viability,NCI-H1792; first compound 0.000632 µM,0.394
same,relative viability,NCI-H1792; first compound 0.002 µM,0.376
same,relative viability,NCI-H1792; first compound 0.006325 µM,0.172
same,relative viability,NCI-H1792; first compound 0.02 µM,0.0755
same,relative viability,NCI-H1944; first compound 0.0002 µM,0.45
same,relative viability,NCI-H1944; first compound 0.000632 µM,0.461
same,relative viability,NCI-H1944; first compound 0.002 µM,0.406
same,relative viability,NCI-H1944; first compound 0.006325 µM,0.291
same,relative viability,NCI-H1944; first compound 0.02 µM,0.139
same,relative viability,NCI-H1993; first compound 0.0002 µM,0.608
same,relative viability,NCI-H1993; first compound 0.000632 µM,0.683
same,relative viability,NCI-H1993; first compound 0.002 µM,0.646
same,relative viability,NCI-H1993; first compound 0.006325 µM,0.585
same,relative viability,NCI-H1993; first compound 0.02 µM,0.354
same,relative viability,NCI-H2009; first compound 0.0002 µM,0.438
same,relative viability,NCI-H2009; first compound 0.000632 µM,0.376
same,relative viability,NCI-H2009; first compound 0.002 µM,0.3
same,relative viability,NCI-H2009; first compound 0.006325 µM,0.263
same,relative viability,NCI-H2009; first compound 0.02 µM,0.181
same,relative viability,NCI-H2170; first compound 0.0002 µM,0.472
same,relative viability,NCI-H2170; first compound 0.000632 µM,0.437
same,relative viability,NCI-H2170; first compound 0.002 µM,0.371
same,relative viability,NCI-H2170; first compound 0.006325 µM,0.172
same,relative viability,NCI-H2170; first compound 0.02 µM,0.151
same,relative viability,NCI-H3122; first compound 0.0002 µM,0.441
same,relative viability,NCI-H3122; first compound 0.000632 µM,0.409
same,relative viability,NCI-H3122; first compound 0.002 µM,0.265
same,relative viability,NCI-H3122; first compound 0.006325 µM,0.182
same,relative viability,NCI-H3122; first compound 0.02 µM,0.126
same,relative viability,NCI-H322M; first compound 0.0002 µM,0.679
same,relative viability,NCI-H322M; first compound 0.000632 µM,0.609
same,relative viability,NCI-H322M; first compound 0.002 µM,0.613
same,relative viability,NCI-H322M; first compound 0.006325 µM,0.653
same,relative viability,NCI-H322M; first compound 0.02 µM,0.553
same,relative viability,NCI-H522; first compound 0.0002 µM,0.641
same,relative viability,NCI-H522; first compound 0.000632 µM,0.571
same,relative viability,NCI-H522; first compound 0.002 µM,0.586
same,relative viability,NCI-H522; first compound 0.006325 µM,0.448
same,relative viability,NCI-H522; first compound 0.02 µM,0.377
same,relative viability,NCI-H596; first compound 0.0002 µM,1.02
same,relative viability,NCI-H596; first compound 0.000632 µM,1.01
same,relative viability,NCI-H596; first compound 0.002 µM,1.02
same,relative viability,NCI-H596; first compound 0.006325 µM,0.639
same,relative viability,NCI-H596; first compound 0.02 µM,0.372
same,relative viability,NCI-H727; first compound 0.0002 µM,0.738
same,relative viability,NCI-H727; first compound 0.000632 µM,0.895
same,relative viability,NCI-H727; first compound 0.002 µM,0.709
same,relative viability,NCI-H727; first compound 0.006325 µM,0.663
same,relative viability,NCI-H727; first compound 0.02 µM,0.788
same,relative viability,PC-3 [JPC-3]; first compound 0.0002 µM,0.816
same,relative viability,PC-3 [JPC-3]; first compound 0.000632 µM,0.849
same,relative viability,PC-3 [JPC-3]; first compound 0.002 µM,0.666
same,relative viability,PC-3 [JPC-3]; first compound 0.006325 µM,0.5
same,relative viability,PC-3 [JPC-3]; first compound 0.02 µM,0.294
same,relative viability,SK-MES-1; first compound 0.0002 µM,0.375
same,relative viability,SK-MES-1; first compound 0.000632 µM,0.381
same,relative viability,SK-MES-1; first compound 0.002 µM,0.347
same,relative viability,SK-MES-1; first compound 0.02 µM,0.164
same,relative viability,SW 1573; first compound 0.0002 µM,0.387
same,relative viability,SW 1573; first compound 0.000632 µM,0.296
same,relative viability,SW 1573; first compound 0.002 µM,0.172
same,relative viability,SW 1573; first compound 0.006325 µM,0.165
same,relative viability,SW 1573; first compound 0.02 µM,0.121
same,relative viability,SW 900; first compound 0.0002 µM,0.485
same,relative viability,SW 900; first compound 0.000632 µM,0.344
same,relative viability,SW 900; first compound 0.002 µM,0.323
same,relative viability,SW 900; first compound 0.006325 µM,0.296
same,relative viability,SW 900; first compound 0.02 µM,0.212
